Data on 46 molecules can be found in US11117901B2, “Substituted pyrazolo[4,3-h]quinazolines as choline kinase inhibitors” (NERVIANO MEDICAL SCIENCES S.R.L., priority 2017, dated 2021).

The target in one assay is T1, hChoKβ FL (Homo sapiens, UniProt Q9Y259).
T1 construct: hChoKβ full length (FL), corresponding to aminoacids 2-395; GST (N, cleaved yes); PreScission Protease recognition site (N); made in house; host or cells: Escherichia coli BL21pLysS (DE3)
Description: Biochemical kinase inhibition assay (Kinase-Glo luminescent) on hChoKβ FL. The following applies: recombinant hChoKβ FL 30 nM, ATP 5 μM, choline 20 μM, 60 min rt; read-out: ChoKβ IC50. The method in brief: (§1)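 Kinase-Glo residual-ATP luminescence with in-house E. coli-expressed, tag-cleaved enzymes: Δ49N-hChoKα 2.2 nM with 5 μM choline; hChoKβ FL 30 nM with 20 μM choline. Both used 5 μM ATP, 60 min at room temperature, 1% DMSO, pH 7.5 Hepes buffer. IC50 from 4-parameter fits of ten 3-fold dilutions from 10 μM.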
On the technique in general: Kinase-Glo measures the ATP left after a reaction by luminescence.

For the next assay, the target named is T2, Δ49N-hChoKα (Homo sapiens, UniProt P35790).
T2 construct: cDNA fragment 362-1534, corresponding to aminoacids 50 457; GST (N, cleaved yes); PreScission Protease recognition site (N); made in house; host or cells: Escherichia coli BL21pLysS (DE3)
T2 sequence (P35790 50-439 isoform P35790-2): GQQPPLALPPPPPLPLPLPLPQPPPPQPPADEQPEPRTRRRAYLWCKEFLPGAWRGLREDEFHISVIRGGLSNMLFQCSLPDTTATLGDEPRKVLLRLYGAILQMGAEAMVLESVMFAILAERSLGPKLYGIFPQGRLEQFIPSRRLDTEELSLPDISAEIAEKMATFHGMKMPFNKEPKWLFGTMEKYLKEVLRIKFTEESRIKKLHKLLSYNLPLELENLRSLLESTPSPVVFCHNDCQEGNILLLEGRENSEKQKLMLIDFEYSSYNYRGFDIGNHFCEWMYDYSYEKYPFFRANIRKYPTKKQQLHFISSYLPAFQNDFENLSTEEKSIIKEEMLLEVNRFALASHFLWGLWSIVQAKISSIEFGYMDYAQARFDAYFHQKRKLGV
The experiment in a line: Biochemical kinase inhibition assay (Kinase-Glo luminescent) on Δ49N-hChoKα. As to conditions: recombinant Δ49N-hChoKα 2.2 nM, ATP 5 μM, choline 5 μM, 60 min rt; read-out: ChoKα IC50. The procedure, abridged: as §1

T1 sequence (Q9Y259 2-395): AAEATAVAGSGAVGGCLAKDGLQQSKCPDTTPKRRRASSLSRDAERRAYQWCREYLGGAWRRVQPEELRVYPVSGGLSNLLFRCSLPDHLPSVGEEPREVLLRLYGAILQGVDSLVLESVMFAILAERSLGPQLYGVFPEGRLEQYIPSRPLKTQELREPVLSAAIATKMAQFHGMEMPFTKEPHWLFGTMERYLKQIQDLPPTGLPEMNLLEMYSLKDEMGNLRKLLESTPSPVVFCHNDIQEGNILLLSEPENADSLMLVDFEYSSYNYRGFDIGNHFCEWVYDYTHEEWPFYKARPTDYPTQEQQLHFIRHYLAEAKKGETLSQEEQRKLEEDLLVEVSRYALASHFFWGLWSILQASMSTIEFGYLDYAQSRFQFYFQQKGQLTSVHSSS

As a reminder, the IC50 is the concentration that gives 50% inhibition. In the case of `CNC1CCN(C(=O)Cc2csc(NC(=O)c3n[nH]c4c3C(C)(C)Cc3cnc(N)nc3-4)n2)CC1` [compound 119], the IC50 on hChoKβ FL is 66 nM; on Δ49N-hChoKα, 53 nM.
Take `CC1(C)Cc2cnc(N)nc2-c2[nH]nc(C(=O)Nc3cccc(CC(=O)N4CCC(N5CCCCC5)CC4)c3)c21` [compound 120]: the results for the IC50 at hChoKβ FL and on Δ49N-hChoKα were 913 nM and 19 nM, respectively.
On to `CNc1ncc2c(n1)-c1[nH]nc(C(=O)Nc3nc(CC(=O)N4CCC(N5CCCCC5)CC4)cs3)c1C(C)(C)C2` [compound 121], for which the IC50 was more than 10000 nM on hChoKβ FL and 18 nM on Δ49N-hChoKα.
On to `CNc1ncc2c(n1)-c1[nH]nc(C(=O)Nc3nc(CC(=O)N4CCC(N5CCC(C)CC5)CC4)cs3)c1C(C)(C)C2` [compound 122], for which the IC50 is more than 10000 nM at hChoKβ FL and 11 nM on Δ49N-hChoKα.
On to `CC1CCN(C2CCN(C(=O)Cc3csc(N(C)C(=O)c4n[nH]c5c4C(C)(C)Cc4cnc(N)nc4-5)n3)CC2)CC1` [compound 123], for which the IC50 at hChoKβ FL is more than 10000 nM; at Δ49N-hChoKα, 53 nM.
As to `CN(C(=O)c1nn(C)c2c1C(C)(C)Cc1cnc(N)nc1-2)c1nc(CC(=O)N2CCC(N3CCCCC3)CC2)cs1` [compound 124], the half-inhibitory concentration (IC50) is more than 10000 nM on hChoKβ FL and 187 nM on Δ49N-hChoKα.
On the same counts, the results for `CC1(C)Cc2cnc(N)nc2-c2[nH]nc(C(=O)Nc3ccc(CNc4ccc(CN5CCC(N6CCCCC6)CC5)cc4)cc3)c21` [compound 126] are 592 nM and 3 nM.
The matching figures for `COC(=O)C1(c2csc(NC(=O)c3n[nH]c4c3C(C)(C)Cc3cnc(N)nc3-4)n2)CC1` [compound 127]: more than 10000 nM and 617 nM.
Regarding `Cn1nc(C(=O)Nc2ccc(CN3CCC(N4CCCCC4)CC3)cc2)c2c1-c1nc(N)ncc1CC2(C)C` [compound 128], the values for the IC50 on hChoKβ FL and at Δ49N-hChoKα were more than 10000 nM and 126 nM, respectively.
Take `CC1(C)Cc2cnc(N)nc2-c2[nH]nc(C(=O)Nc3nc(C4(C(=O)O)CC4)cs3)c21` [compound 129]: the IC50 on hChoKβ FL is more than 10000 nM; on Δ49N-hChoKα, 220 nM.
The matching figures for `CN(C)[C@@H]1CCN(C(=O)C2(c3csc(NC(=O)c4n[nH]c5c4C(C)(C)Cc4cnc(N)nc4-5)n3)CC2)C1` [compound 130]: more than 10000 nM and 534 nM.
In the case of `CC1(C)Cc2cnc(N)nc2-c2[nH]nc(C(=O)Nc3nc(C4(C(=O)N5CCC(N6CCCCC6)CC5)CC4)cs3)c21` [compound 131], the IC50 at hChoKβ FL stood at 3940 nM; at Δ49N-hChoKα it was 233 nM.
Consider `CC(C)(C)OC(=O)NC1CCN(Cc2ccc(NC(=O)c3n[nH]c4c3C(C)(C)Cc3cnc(N)nc3-4)cc2)CC1` [compound 133], for which the IC50 was determined as 1440 nM at hChoKβ FL and 536 nM on Δ49N-hChoKα.
`Cn1nc(C(=O)Nc2nc(CN3CCC(N4CCCCC4)CC3)cs2)c2c1-c1nc(N)ncc1CC2(C)C` [compound 141]: the IC50 on hChoKβ FL is more than 10000 nM; at Δ49N-hChoKα, 622 nM.
As for `CN(C)[C@@H]1CCN(C(=O)Cc2cccc(NC(=O)c3n[nH]c4c3C(C)(C)Cc3cnc(N)nc3-4)c2)C1` [compound 142], the IC50 on hChoKβ FL was found to be 671 nM; at Δ49N-hChoKα it was 110 nM.
On the same counts, the results for `CC1(C)Cc2cnc(N)nc2-c2[nH]nc(C(=O)Nc3nc(CN4CCC(N5CCCCC5)CC4)cs3)c21` [compound 143] are 2160 nM and 142 nM.
Turning to `CC1(C)Cc2cnc(N)nc2-c2[nH]nc(C(=O)Nc3ncc[nH]3)c21` [compound 144], the figures for the IC50 at hChoKβ FL and on Δ49N-hChoKα were 688 nM and 546 nM, respectively.
The matching figures for `CC1(C)Cc2cnc(N)nc2-c2[nH]nc(C(=O)Nc3nc(CC(=O)NC4CCN(C5CCCCC5)CC4)cs3)c21` [compound 145]: 928 nM and 11 nM.
In the case of `CN(C)C1CCN(C(=O)Cc2cccc(NC(=O)c3n[nH]c4c3C(C)(C)Cc3cnc(N)nc3-4)c2)CC1` [compound 146], the IC50 at hChoKβ FL is 551 nM; at Δ49N-hChoKα it was 65 nM.
With `CN(C)[C@@H]1CCN(Cc2csc(NC(=O)c3nn(C)c4c3C(C)(C)Cc3cnc(N)nc3-4)n2)C1` [compound 147], the IC50 is more than 10000 nM on hChoKβ FL and 594 nM at Δ49N-hChoKα.
Take `CN(C)[C@@H]1CCN(Cc2csc(NC(=O)c3n[nH]c4c3C(C)(C)Cc3cnc(N)nc3-4)n2)C1` [compound 148]: the results for the IC50 on hChoKβ FL and on Δ49N-hChoKα were 1100 nM and 357 nM, respectively.
Regarding `CC1(C)Cc2cnc(N)nc2-c2[nH]nc(C(=O)Nc3cccc(CC(=O)N4CCC(N)CC4)c3)c21` [compound 149], the figures for the IC50 at hChoKβ FL and at Δ49N-hChoKα were 3210 nM and 164 nM, respectively.
`CC1(C)Cc2cnc(N)nc2-c2[nH]nc(C(=O)Nc3nc(CC(=O)N4CCN(C5CCCCC5)CC4)cs3)c21` [compound 150]: the half-inhibitory concentration (IC50) at hChoKβ FL is 352 nM; at Δ49N-hChoKα, 6 nM.
For `CN1CCc2nc(NC(=O)c3n[nH]c4c3C(C)(C)Cc3cnc(N)nc3-4)sc2C1` [compound 151], the IC50 at hChoKβ FL stood at 5340 nM; on Δ49N-hChoKα, 174 nM.
Regarding `CC1(C)Cc2cnc(N)nc2-c2[nH]nc(C(=O)Nc3nc(CN4CCC(N)CC4)cs3)c21` [compound 152], the results for the 50% inhibitory concentration (IC50) on hChoKβ FL and at Δ49N-hChoKα were more than 10000 nM and 534 nM, respectively.
As to `CC1(C)Cc2cnc(N)nc2-c2[nH]nc(C(=O)Nc3nc(CC(=O)N4CC[C@@H]([N+](C)(C)[O-])C4)cs3)c21` [compound 154], the IC50 was 564 nM on hChoKβ FL and 14 nM on Δ49N-hChoKα.
`Cc1csc(NC(=O)c2nn(C)c3c2C(C)(C)Cc2cnc(N)nc2-3)n1` [compound 155]: the IC50 on hChoKβ FL is more than 10000 nM; on Δ49N-hChoKα it was 629 nM.
Turning to `CC1(C)Cc2cnc(N)nc2-c2[nH]nc(C(=O)Nc3nc(CNC4CCN(C5CCCCC5)CC4)cs3)c21` [compound 156], the figures for the IC50 at hChoKβ FL and on Δ49N-hChoKα were 249 nM and 3 nM, respectively.
Turning to `CC1(C)Cc2cnc(N)nc2-c2[nH]nc(C(=O)Nc3nc(COC4CCN(C5CCCCC5)CC4)cs3)c21` [compound 157], the IC50 was found to be 292 nM on hChoKβ FL and 6 nM on Δ49N-hChoKα.
Regarding `CC1(C)Cc2cnc(N)nc2-c2[nH]nc(C(=O)Nc3nc(CC(=O)N4CCN(c5ccccc5)CC4)cs3)c21` [compound 160], the IC50 was determined as 2210 nM on hChoKβ FL and 25 nM on Δ49N-hChoKα.
The matching figures for `CC1(C)Cc2cnc(N)nc2-c2[nH]nc(C(=O)N3CCN(c4ccccc4)CC3)c21` [compound 161]: more than 10000 nM and 507 nM.
Consider `CC1(C)Cc2cnc(N)nc2-c2[nH]nc(C(=O)NCc3ccc(C(=O)N4CCC(N5CCCCC5)CC4)cc3)c21` [compound 165], for which the results for the IC50 on hChoKβ FL and at Δ49N-hChoKα were 69 nM and 180 nM, respectively.
On to `CN1CCC(NC(=O)c2ccc(CNC(=O)c3n[nH]c4c3C(C)(C)Cc3cnc(N)nc3-4)cc2)CC1` [compound 166], for which the IC50 was determined as 134 nM on hChoKβ FL and 136 nM on Δ49N-hChoKα.
On the same counts, the results for `CC1CCN([C@H]2CC[C@H](OCc3csc(NC(=O)c4n[nH]c5c4C(C)(C)Cc4cnc(N)nc4-5)n3)CC2)CC1` [compound 170] are 887 nM and 17 nM.
Turning to `Cc1csc(NC(=O)c2nn(CCO)c3c2C(C)(C)Cc2cnc(N)nc2-3)n1` [compound 182], the IC50 was more than 10000 nM on hChoKβ FL and 458 nM on Δ49N-hChoKα.
For the molecule `CC1(C)Cc2cnc(N)nc2-c2[nH]nc(C(=O)Nc3nc(C(F)(F)C(=O)N4CCC(N5CCCCC5)CC4)cs3)c21` [compound 183], the IC50 was found to be 654 nM at hChoKβ FL and 13 nM at Δ49N-hChoKα.
On the same counts, the results for `CC1(C)Cc2cnc(N)nc2-c2[nH]nc(C(=O)Nc3nc(COC4CCN(C5CCC(F)(F)CC5)CC4)cs3)c21` [compound 189] are 1560 nM and 31 nM.
Turning to `CC1(C)CCC(N2CCC(OCc3csc(NC(=O)c4n[nH]c5c4C(C)(C)Cc4cnc(N)nc4-5)n3)CC2)CC1` [compound 190], the values for the IC50 at hChoKβ FL and on Δ49N-hChoKα were 546 nM and 8 nM, respectively.
As to `CC1CCN(C2CCN(C(=O)C(F)(F)c3csc(NC(=O)c4n[nH]c5c4C(C)(C)Cc4cnc(N)nc4-5)n3)CC2)CC1` [compound 191], the figures for the IC50 on hChoKβ FL and at Δ49N-hChoKα were 303 nM and 7 nM, respectively.
Regarding `CC1(C)Cc2cnc(N)nc2-c2[nH]nc(C(=O)Nc3nc(COC4CCN(C5CCCCCC5)CC4)cs3)c21` [compound 209], the IC50 on hChoKβ FL came out at 230 nM; on Δ49N-hChoKα it was 5 nM.
Consider `CC1CCN(C2CCN(C(=O)Cc3csc(NC(=O)c4c5c(nn4C)-c4nc(N)ncc4CC5(C)C)n3)CC2)CC1` [compound 211], for which the figures for the IC50 on hChoKβ FL and at Δ49N-hChoKα were more than 10000 nM and 108 nM, respectively.
Consider `CC1(C)Cc2cnc(N)nc2-c2[nH]nc(C(=O)Nc3nc(COC4CCN(CC5CCCCC5)CC4)cs3)c21` [compound 212], for which the IC50 was 457 nM at hChoKβ FL and 8 nM on Δ49N-hChoKα.
The matching figures for `CC1(C)Cc2cnc(N)nc2-c2[nH]nc(C(=O)Nc3nc(COC4CCN(Cc5ccccc5)CC4)cs3)c21` [compound 213]: 450 nM and 16 nM.
Take `Cn1nc(C(=O)Nc2nc(COC3CCN(C4CCCCCC4)CC3)cs2)c2c1-c1nc(N)ncc1CC2(C)C` [compound 217]: the figures for the IC50 on hChoKβ FL and on Δ49N-hChoKα were 3550 nM and 18 nM, respectively.
On the same counts, the results for `CC1(C)CCN(C2CCN(C(=O)Cc3csc(NC(=O)c4n[nH]c5c4C(C)(C)Cc4cnc(N)nc4-5)n3)CC2)CC1` [compound 218] are 254 nM and 2 nM.
The matching figures for `CC1(C)CCCN(C2CCN(C(=O)Cc3csc(NC(=O)c4n[nH]c5c4C(C)(C)Cc4cnc(N)nc4-5)n3)CC2)C1` [compound 219]: 296 nM and 2 nM.
